The values that follow come from US11535630B2, “Apelin receptor (APJ) agonists and uses thereof” (Research Triangle Institute, priority 2015, dated 2022).

The target of assay [1] is T1, apelin receptor (APJ) (Homo sapiens, UniProt P35414).
T1 sequence (P35414 1-380): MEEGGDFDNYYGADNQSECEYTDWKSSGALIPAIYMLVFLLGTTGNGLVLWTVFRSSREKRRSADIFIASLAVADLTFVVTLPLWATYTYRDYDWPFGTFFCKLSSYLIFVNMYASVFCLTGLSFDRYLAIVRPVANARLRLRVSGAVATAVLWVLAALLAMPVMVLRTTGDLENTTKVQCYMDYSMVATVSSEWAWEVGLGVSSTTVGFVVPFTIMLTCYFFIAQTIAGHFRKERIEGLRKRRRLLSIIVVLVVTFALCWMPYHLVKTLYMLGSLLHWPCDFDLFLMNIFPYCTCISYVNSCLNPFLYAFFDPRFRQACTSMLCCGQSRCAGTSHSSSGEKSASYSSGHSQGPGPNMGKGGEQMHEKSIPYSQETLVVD
The assay can be described thus: In vitro apelin agonist activity (methods of Giddings et al., Apelin-13 as positive control). In kind it is cell-based. Conditions: in vitro apelin agonist activity, methods of Giddings et al., Apelin-13 as positive control. The text has this: Characterization of the Apelin Agonist Activity of the Compounds
1:39-47, the contents of which are hereby incorporated by reference in its entirety. Using the methods described in Giddings et al. and Apelin-13 as a positive control.

Assay [2] concerns male Sprague-Dawley rats. The assay can be described thus: In vivo blood pressure lowering in conscious telemetered rats, oral gavage. Set-up: species or system rat. Conditions: for Diastolic blood pressure, 2-5 h mean change from baseline / MAP, 2-5 h mean change from baseline / Systolic blood pressure, 2-5 h mean change from baseline: rat. On the procedure:
In Vivo Blood Pressure Lowering Activity of the Compounds
Select compounds were evaluated for their effects upon oral administration on hemodynamic changes, including blood pressure reduction, in conscious, telemetered male Sprague-Dawley rats. Apelin peptides are known to lower blood pressure, e.g., Tatemoto, K., et.al. Regul. Pept. 2001, 99, 87-92.
Animals were approximately 7-9 weeks of age and weighed between 247 g to 263 g just prior to surgery. Dose levels administered were 7.5, 15 or 30 mg/kg, dose volumes were 10 mL/kg, and dose route of administration was oral gavage. Animals were assigned to a crossover experimental treatment schedule as shown below.
Collected data included systolic, diastolic, and mean arterial blood pressure (MAP). Data collection time points were for pre-dose baseline approximately 48 h (prior to treatment 1) or approximately 24 h (prior to treatment 2-4) for 10 sec every 2 min. Data collection post-dose was collected through approximately 24 h (data collected for 10 sec every 2 min) per treatment. Resulting data is presented below as the 2-5 h mean change from baseline in mmHg.

Where a name gives a salt, the structure may show the parent alone. Read-outs that look alike come from different tables or passages of the source.

Take `Cl.O=C(O)C[C@H](CCN1CCCC(F)(F)C1)NC(=O)c1cc(-c2ccccc2C(F)(F)F)n(C2CCCC2)n1` [compound 423, (3S)-3-({1-cyclopentyl-5-[2-(trifluoromethyl)phenyl]-1H-pyrazol-3-yl}formamido)-5-(3,3-difluoropiperidin-1-yl)pentanoic acid]: in assay [1] (read-out: EC50 (nM) Ave), the EC50 worked out at 35 nM. In assay [2] (7.5 mg/kg oral gavage), the “Diastolic blood pressure, 2-5 h mean change from baseline” value was −9.9 mmHg; the “MAP, 2-5 h mean change from baseline” value is −10.0 mmHg; the “Systolic blood pressure, 2-5 h mean change from baseline” value was −13.0 mmHg. In assay [2] (15 mg/kg oral gavage), the “Diastolic blood pressure, 2-5 h mean change from baseline” value was −7.3 mmHg; the “MAP, 2-5 h mean change from baseline” value is on record as −8.4 mmHg; the “Systolic blood pressure, 2-5 h mean change from baseline” value is −9.8 mmHg. For the same compound, in assay [2] (30 mg/kg oral gavage), the “Diastolic blood pressure, 2-5 h mean change from baseline” value is −8.3 mmHg; the “MAP, 2-5 h mean change from baseline” value is listed as −9.3 mmHg; the “Systolic blood pressure, 2-5 h mean change from baseline” value is reported as −10.7 mmHg. In addition, in assay [2] (oral gavage 7.5, 15 or 30 mg/kg, male Sprague-Dawley rats), the “Effect on blood pressure (in words)” value is reported as “mild sustained decrease in blood pressure”.

In the case of `CC(F)(F)c1ccccc1-c1cc(C(=O)N[C@@H](CCN2CCC(=O)CC2(C)C)CC(=O)O)nn1C1CCCC1` [compound 611, (3S)-3-({1-cyclopentyl-5-[2-(1,1-difluoroethyl)phenyl]-1H-pyrazol-3-yl}formamido)-5-(2,2-dimethyl-4-oxopiperidin-1-yl)pentanoic acid], in assay [1] (read-out: EC50 (nM) Ave), the EC50 is 509 nM.

Take `CC1(C)CC(F)(F)CN1CC[C@@H](CC(=O)O)NC(=O)c1cc(-c2ccccc2C(F)(F)F)n(C2CCCC2)n1` [compound 612, (3S)-3-({1-cyclopentyl-5-[2-(trifluoromethyl)phenyl]-1H-pyrazol-3-yl}formamido)-5-(4,4-difluoro-2,2-dimethylpyrrolidin-1-yl)pentanoic acid]: in assay [1] (read-out: EC50 (nM) Ave), the EC50 was found to be 231 nM.

`CC1(F)CCCN(CC[C@@H](CC(=O)O)NC(=O)c2cc(-c3ccccc3C(F)(F)F)n(C3CCCC3)n2)C1` (stereo partly drawn) [compound 613, (3S)-3-({1-cyclopentyl-5-[2-(trifluoromethyl)phenyl]-1H-pyrazol-3-yl}formamido)-5-(3-fluoro-3-methylpiperidin-1-yl)pentanoic acid trifluoroacetate]: the EC50 in assay [1] (read-out: EC50 (nM) Ave) came out at 104 nM.

As for `C[C@]1(F)CCCN(CC[C@@H](CC(=O)O)NC(=O)c2cc(-c3ccccc3C(F)(F)F)n(C3CCCC3)n2)C1` [compound 614, (3S)-3-({1-cyclopentyl-5-[2-(trifluoromethyl)phenyl]-1H-pyrazol-3-yl}formamido)-5-[(3S)-3-fluoro-3-methylpiperidin-1-yl]pentanoic acid], the concentration giving a half-maximal response (EC50) in assay [1] (read-out: EC50 (nM) Ave) was determined as 41 nM.

Consider `O=C(O)C[C@H](CCNC1(C(F)(F)F)CCCC1)NC(=O)c1cc(-c2ccccc2C(F)(F)F)n(C2CCCC2)n1` [compound 615, (3S)-3-({1-cyclopentyl-5-[2-(trifluoromethyl)phenyl]-1H-pyrazol-3-yl}formamido)-5-{[1-(trifluoromethyl)cyclopentyl]amino}pentanoic acid trifluoroacetate], for which the EC50 in assay [1] (read-out: EC50 (nM) Ave) is 353 nM.

Turning to `O=C(O)C[C@H](CCN1C[C@H](F)[C@@H](F)C1)NC(=O)c1cc(-c2ccccc2C(F)(F)F)n(C2CCCC2)n1` [compound 629, (3S)-3-({1-cyclopentyl-5-[2-(trifluoromethyl)phenyl]-1H-pyrazol-3-yl}formamido)-5-[(3S,4S)-3,4-difluoropyrrolidin-1-yl]pentanoic acid], in assay [1] (read-out: EC50 (nM) Ave), the EC50 is 77 nM.

Take `O=C(N[C@@H](CCN1C[C@H](F)[C@@H](F)C1)Cc1nnn[nH]1)c1cc(-c2ccccc2C(F)(F)F)n(C2CCCC2)n1` [compound 630]: the EC50 in assay [1] (read-out: EC50 (nM) Ave) amounted to 24 nM.

With `O=C(O)C[C@H](CCN1C[C@@H](F)[C@H](F)C1)NC(=O)c1cc(-c2ccccc2C(F)(F)F)n(C2CCCC2)n1` [compound 631, (3S)-3-({1-cyclopentyl-5-[2-(trifluoromethyl)phenyl]-1H-pyrazol-3-yl}formamido)-5-[(3R,4R)-3,4-difluoropyrrolidin-1-yl]pentanoic acid], the EC50 in assay [1] (read-out: EC50 (nM) Ave) was 75 nM.

As to `CC(C(=O)O)[C@H](CCN1CC2C(C1)C2(F)F)NC(=O)c1cc(-c2ccccc2C(F)(F)F)n(C2CCCC2)n1` (stereo partly drawn) [compound 635, (2R,3S)-3-({1-cyclopentyl-5-[2-(trifluoromethyl)phenyl]-1H-pyrazol-3-yl}formamido)-5-{6,6-difluoro-3-azabicyclo[13.1.0]hexan-3-yl}-2-methylpentanoic acid], the EC50 in assay [1] (read-out: EC50 (nM) Ave) was determined as 13 nM.

As to `CC(C(=O)NC1CCC1)[C@H](CCN1CC2C(C1)C2(F)F)NC(=O)c1cc(-c2ccccc2C(F)(F)F)n(C2CCCC2)n1` (stereo partly drawn) [compound 636, (3S)-N-cyclobutyl-3-({1-cyclopentyl-5-[2-(trifluoromethyl)phenyl]-1H-pyrazol-3-yl}formamido)-5-{6,6-difluoro-3-azabicyclo[3.1.0]hexan-3-yl}-2-methylpentanamide], the EC50 in assay [1] (read-out: EC50 (nM) Ave) was 158 nM.

With `CC(c1nnn[nH]1)[C@H](CCN1CC2C(C1)C2(F)F)NC(=O)c1cc(-c2ccccc2C(F)(F)F)n(C2CCCC2)n1` (stereo partly drawn) [compound 637, 1-cyclopentyl-N-[(3S)-1-{6,6-difluoro-3-azabicyclo[3.1.0]hexan-3-yl}-4-(1H-1,2,3,4-tetrazol-5-yl)pentan-3-yl]-5-[2-(trifluoromethyl)phenyl]-1H-pyrazole-3-carboxamide], in assay [1] (read-out: EC50 (nM) Ave), the EC50 was determined as 21 nM.

Consider `C[C@@H](c1nnn[nH]1)[C@H](CCN1CC2C(C1)C2(F)F)NC(=O)c1cc(-c2ccccc2C(F)(F)F)n(C2CCCC2)n1` (stereo partly drawn) [compound 638, 1-cyclopentyl-N-[(3S,4R)-1-{6,6-difluoro-3-azabicyclo[3.1.0]hexan-3-yl}-4-(1H-1,2,3,4-tetrazol-5-yl)pentan-3-yl]-5-[2-(trifluoromethyl)phenyl]-1H-pyrazole-3-carboxamide], for which the EC50 in assay [1] (read-out: EC50 (nM) Ave) was 14 nM.

Take `O=C(O)C[C@H](CCN1CC(F)CC(F)C1)NC(=O)c1cc(-c2ccccc2C(F)(F)F)n(C2CCCC2)n1` (stereo partly drawn) [compound 639, (3S)-3-({1-cyclopentyl-5-[2-(trifluoromethyl)phenyl]-1H-pyrazol-3-yl}formamido)-5-(3,5-difluoropiperidin-1-yl)pentanoic acid]: the EC50 in assay [1] (read-out: EC50 (nM) Ave) stood at 40 nM.

`O=C(N[C@@H](CCN1CCCC(F)(F)C1)Cc1nnn[nH]1)c1cc(-c2ncccc2C(F)(F)F)n(C2CCCC2)n1` [compound 641]: the EC50 in assay [1] (read-out: EC50 (nM) Ave) was determined as 27 nM.

Turning to `O=C(O)C[C@H](CCN1C(=O)CCC1=O)NC(=O)c1cc(-c2ccccc2C(F)(F)F)n(C2CCCC2)n1` [compound 643, (3S)-3-({1-cyclopentyl-5-[2-(trifluoromethyl)phenyl]-1H-pyrazol-3-yl}formamido)-5-(2,5-dioxopyrrolidin-1-yl)pentanoic acid], the EC50 in assay [1] (read-out: EC50 (nM) Ave) is 182 nM.

In turn, `COc1cccc(OC)c1-c1cc(C(=O)N[C@@H](CCC2CCCCC2)CC(=O)O)nn1C1CCCCCCC1` [compound 647, (3S)-5-cyclohexyl-3-{[1-cyclooctyl-5-(2,6-dimethoxyphenyl)-1H-pyrazol-3-yl]formamido}pentanoic acid] came in with an EC50 in assay [1] (EC50 (nM) Ave) greater than 10000 nM.

As for `COc1cccc(OC)c1-c1cc(C(=O)N[C@@H](CCC2CCCCC2)CC(=O)O)nn1CC1CCCCC1` [compound 648], in assay [1] (read-out: EC50 (nM) Ave), the EC50 is greater than 10000 nM.

On to `CCC(CC)n1nc(C(=O)N[C@@H](CCC2CCCCC2)CC(=O)O)cc1-c1c(OC)cccc1OC` [compound 649, (3S)-5-cyclohexyl-3-{[5-(2,6-dimethoxyphenyl)-1-(pentan-3-yl)-1H-pyrazol-3-yl]formamido}pentanoic acid], for which, in assay [1] (read-out: EC50 (nM) Ave), the EC50 is greater than 10000 nM.

Turning to `O=C(N[C@@H](CCN1C(=O)CCCC1=O)Cc1nnn[nH]1)c1cc(-c2ccccc2C(F)(F)F)n(C2CCCC2)n1` [compound 655, 1-cyclopentyl-N-[(2S)-4-(2,6-dioxopiperidin-1-yl)-1-(1H-1,2,3,4-tetrazol-5-yl)butan-2-yl]-5-[2-(trifluoromethyl)phenyl]-1H-pyrazole-3-carboxamide], in assay [1] (read-out: EC50 (nM) Ave), the EC50 came out at 66 nM.
